Entries after “also recorded” stand apart in the source; their conditions may differ.
Key:
[1] = known from literature; cited from earlier work
[2] = Sleep time / hypnosis or sedation; type: in vivo; details: Table IX, intraperitoneal, 65 mg/kg
Method: In Phase I identification of anticonvulsant activity, test compounds were given intraperitoneally (IP) at 30, 100, 300 and, in some cases, 600 milligrams per kilogram (mg/kg) of body weight and protection against Maximal Electroshock and/or Metrazol-induced seizures was determined 30 minutes, 4 hours, or later. […] Subsequently the routine protocol was modified and certain of the test compounds (see Tables, infra) re-evaluated following subcutaneous (SC) injection at periods of up to 8 hours post injection. Subcutaneous administration can be helpful in determining whether or not hypnotic activity can be distinguished from anticonvulsant activity based upon the decreased rate of absorption associated with this route of administration as opposed to the more rapid rate of absorption associated with IP administration.

[3] = Anticonvulsant activity, both or unspecified seizure models; type: in vivo, male Carworth Farms #1 mice or Sprague-Dawley rats
[4] = Maximal Electroshock Seizure Test; type: in vivo, male Carworth Farms #1 mice or Sprague-Dawley rats
[5] = mouse, in vivo; cited from earlier work
[6] = 85 mg/kg subcutaneous; cited from earlier work
[7] = cited from earlier work

Compound: O=C(O)c1ccccc1O [salicylate]
- Convulsions / CNS toxicity at high doses [1]: cause convulsions at high doses

Compound: CCC1(CCC(C)C)C(=O)[N-]C(=O)NC1=O.CCC1(CCC(C)C)C(=O)[N-]C(=O)NC1=O.[Cu+2] [Cu(II)(amobarbital)2]
- Sleep (in words) [2]: All animals slept
- Average Sleep Time ([2]; 5 animals): 16 min
- Potency or effectiveness relative to a comparator (in words) ([3]; in vivo): more potent anticonvulsant than sodium (Na) amobarbital
- Protection Against Seizure ([4]; Table IX, maximal electroshock, intraperitoneal, 65 mg/kg, 5 animals): 100 Percent protected

Compound: C1CCc2nnnn2CC1 [Metrazol, pentylenetetrazol]
- CNS stimulation / rotating rod toxicity (known) [5]: potent central nervous system stimulant; also recorded: marked rotating rod toxicity
- Seizures produced [6]: greater than 97 % of mice

Compound: O=C1NC(=O)C(c2ccccc2)(c2ccccc2)N1 [Dilantin, Phenytoin, reference compound]
- Time of peak effect ([3]; Phase II): 1 h
- Time of peak activity (Phase II) ([3]; Table X, IP, challenge time): 1 h
- ED50 ([4]; Mus musculus, Table X, IP, at time of peak activity, read-out: ED50 for inhibition of seizures, MES (Phase II)): 7 mg/kg
- Known effect of parent drug on seizures [7]: known to only inhibit Maximal Electroshock-induced seizures but it potentiates Metrazol-induced seizures
